Measured values as given in publication PMC11241262, “Unravelling the Antifibrinolytic Mechanism of Action of the 1,2,3-Triazole Derivatives” (International Journal of Molecular Sciences, 2024).

Assays:
[1] = Pharmacokinetic study in Wistar rats; assay type: in vivo; conditions: for Mortality: PK2 2.5 mg/kg iv, 9 rats; for AUC / Cmax / Tmax / Vd / clearance / half-life: iv
Protocol: A pharmacokinetic study was performed for compound 5 in Wistar rats and Beagle dogs. For rats, a total of 35 male and 35 female rats were used for the study. At initiation of the dosing, rats were 9 to 10 weeks old and the body weight variation among rats was within ±20% of the mean body weight for each sex. […] Food and filtered water were provided ad libitum. During randomization, 30 male and 30 female rats were selected for the study and randomly allocated to the 4 different groups. The remaining 5 male and 5 female rats were returned to the animal facility. Rats were observed twice daily for morbidity, mortality, and clinical signs during the whole study period. Rats were euthanized after last blood collection time point by carbon dioxide asphyxiation. Sterile water served as a vehicle to dissolve compound 5 and the resulting formulations were administered right after preparation. Dose formulations were administered to rats via an intravenous bolus injection through the tail vein, using a sterile needle attached to a graduated syringe. A fixed volume of 5 mL/kg body weight was administered. Individual doses were adjusted based on the most recent recorded body weight of each rat. Four dose levels were selected: vehicle control (PK1), 2.5 mg/kg (PK2), 5 mg/kg (PK3), and 10 mg/kg (PK4).
Pharmacokinetic assessment of compound 5 was conducted on the day of dosing at multiple time points: 0 h (pre-dose), 5 min, 15 min, 0.5 h, 1 h, 2 h, 4 h, 6 h, 10 h, and 24 h post-dosing for PK2, PK3, and PK4 rats. At each time point, samples were only obtained from a subset of 3 rats. For the PK1 group, samples were collected at 0 h and at 24 h post-dosing. Blood samples (400 µL) were collected into heparin sodium tubes from the retro-orbital plexus under very light isoflurane anesthesia. Samples were inverted 4 to 5 times and placed on ice and then centrifuged at 3500 rpm for 15 min at 8 °C for plasma extraction. Plasma was transferred to Eppendorf tubes and stored at −70 ± 10 °C until assayed. The concentration of compound 5 was analyzed in plasma using High-Performance Liquid Chromatography. […] The mobile phase consisted of acetonitrile (A) and 2 mM ammonium Formate in Mili-Q water (B) with an isocratic elution mode. Pharmacokinetic analysis of the concentration of compound 5 in plasma was performed using the non-compartmental model of the WinNonlin® software version 8.1 at JRF. The group mean values of plasma concentration were analyzed to obtain different pharmacokinetics parameters, including Cmax (maximum peak concentration), Tmax (time of maximum peak concentration), AUC (area under the concentration–time curve, Cl (clearance), Vd (volume of distribution), Kel (elimination rate constant), and T1/2 (terminal half-life).

plasmin = molecular target: T1, plasmin (Homo sapiens, UniProt P00747); assay: Plasmin activity assay (Plasmin Inhibitor Screening Assay Kit); assay type: biochemical
T1 construct: purchased abcam
Protocol: The potential activity of the studied compounds on the catalytic domain of plasmin was evaluated using the Plasmin Inhibitor Screening Assay Kit (abcam), following the manufacturer’s instructions. Briefly, the assay measures the inhibition of plasmin’s activity by the tested compounds through the cleavage of a fluorogenic peptide substrate. The assay was performed in flat-bottom 96-well plates. Plasmin was pre-incubated with different concentrations of the tested compounds for 10 min at RT prior to the addition of the peptide substrate. Plasmin’s activity was then measured by monitoring the increase in fluorescence intensity over time using a microplate reader (Infinite M Plex, Tecan, Männedorf, Switzerland) at an Ex/Em of 360/450 nm, every minute at 37 °C for 10 min. The slope of each sample was determined using the initial and final fluorescence values and their respective time points. (1) Fluorescence slope=RFU2−RFU1/t2−t1
The Relative Plasmin Inhibition was calculated according to the manufacturer’s instructions using a control slope with no compound (enzyme control):(2) Relative Plasmin Inhibition%=SlopeControl−SlopeCompound/SlopeControl×100

in vivo = conditions: dog, iv, 5 mg/kg; for Morbidity / Mortality: 24 h
Protocol: For the pharmacokinetic study in Beagle dogs, a total of 3 male and 3 female dogs were selected. They were acclimatized for 5 days before dosing and at the start of dosing, dogs were between 36 and 37 months old. […] Sterile water was also selected as a vehicle for injection of compound 5. […] A constant dose volume of 1 mL/kg body weight was administered, adjusted according to the most recently recorded body weight of each dog. A single dose of 5 mg/kg b. wt. was selected in the case of dogs.
Blood collection, plasma separation, and storage procedures were conducted following the same procedure as described for rats. Blood samples (600 µL) were collected from the cephalic vein of the forelimb for each dog. However, the concentration of compound 5 was determined using LC-MS/MS analysis. A column with identical characteristics to the one used in rats was employed, with a flow rate of 0.65 mL/min, a binary elution mode, and a run time of 6.0 min. Plasma samples were analyzed to determine the concentration of the active ingredient, and subsequently, the pharmacokinetic parameters were calculated. After a washout period of 7 days, dogs were returned back to stock.

[2] = female, Wistar, rat, in vivo, 2.5 mg/kg
[3] = female, Wistar, rat, in vivo, 5 mg/kg
[4] = female, Wistar, rat, in vivo, 10 mg/kg
[5] = male, Wistar, rat, in vivo, 2.5 mg/kg
[6] = male, Wistar, rat, in vivo, 5 mg/kg
[7] = male, Wistar, rat, in vivo, 10 mg/kg

T1 sequence (P00747 97-580 limits assumed): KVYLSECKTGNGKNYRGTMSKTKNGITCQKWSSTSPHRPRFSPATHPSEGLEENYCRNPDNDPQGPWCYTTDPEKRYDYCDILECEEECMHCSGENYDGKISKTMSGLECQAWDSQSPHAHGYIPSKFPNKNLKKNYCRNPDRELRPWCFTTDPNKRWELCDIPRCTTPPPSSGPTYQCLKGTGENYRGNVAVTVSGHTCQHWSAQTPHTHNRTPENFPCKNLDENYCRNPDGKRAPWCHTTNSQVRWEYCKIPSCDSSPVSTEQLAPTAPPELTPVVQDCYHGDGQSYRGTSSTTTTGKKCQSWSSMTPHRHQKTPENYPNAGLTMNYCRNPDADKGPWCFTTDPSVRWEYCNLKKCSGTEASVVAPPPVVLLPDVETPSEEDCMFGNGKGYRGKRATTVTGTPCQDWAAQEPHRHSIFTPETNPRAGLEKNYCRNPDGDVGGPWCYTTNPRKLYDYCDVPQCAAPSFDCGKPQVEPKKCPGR
T1 sequence (P00747 581-810 limits assumed): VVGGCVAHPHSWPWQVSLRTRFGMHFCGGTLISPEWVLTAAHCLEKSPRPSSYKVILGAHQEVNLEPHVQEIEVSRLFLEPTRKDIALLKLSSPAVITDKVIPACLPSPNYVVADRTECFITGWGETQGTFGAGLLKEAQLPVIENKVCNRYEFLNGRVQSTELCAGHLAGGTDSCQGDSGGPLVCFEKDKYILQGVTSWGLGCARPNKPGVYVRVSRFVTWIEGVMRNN

O=c1[nH]nc(-c2cn(C3CCNCC3)nn2)o1 [compound 5]
Mortality ([1]; female): 0 number of rats | Mortality ([1]; male): 0 number of rats | elimination halftime ([1]; both, Wistar (rat), Beagle (dog), rat, in vivo): 2 to 3 h | AUC [1, 2]: 3630 ng·h/mL | Cmax [1, 2]: 8660 ng/mL | Tmax [1, 2]: 4.8 min | Vd [1, 2]: 1.91 L/kg | clearance [1, 2]: 11.5 mL/min/kg | half-life [1, 2]: 115 min | AUC [1, 3]: 7040 ng·h/mL | Tmax [1, 3]: 4.8 min | Vd [1, 3]: 2.03 L/kg | clearance [1, 3]: 11.8 mL/min/kg | half-life [1, 3]: 119 min | AUC [1, 4]: 13600 ng·h/mL | Tmax [1, 4]: 4.8 min | Vd [1, 4]: 2.37 L/kg | clearance [1, 4]: 12.2 mL/min/kg | half-life [1, 4]: 134 min | AUC [1, 5]: 3430 ng·h/mL | Cmax [1, 5]: 8280 ng/mL | Tmax [1, 5]: 4.8 min | Vd [1, 5]: 2.52 L/kg | clearance [1, 5]: 12.2 mL/min/kg | half-life [1, 5]: 145 min | AUC [1, 6]: 6530 ng·h/mL | Cmax [1, 6]: 15100 ng/mL | Tmax [1, 6]: 4.8 min | Vd [1, 6]: 6.01 L/kg | clearance [1, 6]: 12.7 mL/min/kg | half-life [1, 6]: 327 min | AUC [1, 7]: 12200 ng·h/mL | Cmax [1, 7]: 26300 ng/mL | Tmax [1, 7]: 4.8 min | Vd [1, 7]: 6.65 L/kg | clearance [1, 7]: 13.7 mL/min/kg | half-life [1, 7]: 337 min | Cmax ([1]; rat, in vivo, 5 mg/kg): 16,634 | Cmax ([1]; rat, in vivo, 10 mg/kg): 30,839 | inhibition at 5000 µM (plasmin; 5 mM, read-out: percentage of plasmin's inhibition): 6.29% | inhibition at 10000 µM (plasmin; 10 mM, read-out: percentage of plasmin's inhibition): 23.9% | inhibition at 15000 µM (plasmin; 15 mM, read-out: percentage of plasmin's inhibition): 31.3% | inhibition at 20000 µM (plasmin; 20 mM, read-out: percentage of plasmin's inhibition): 65.3% | IC50 (plasmin; inhibition of plasmin's cleavage of a synthetic substrate by 50%): 17.9 ± 1.24 mM | increase of IC50 of plasmin's catalytic domain compared to IC50 in plasma clot lysis assay (plasmin; plasma clot lysis IC50 from Bosch-Sanz et al. [43]): 1000 fold | Clinical signs observed: N of dogs with Mild vomiting (in vivo; female, Beagle): 1 | Cmax (in vivo; female, Beagle): 15800 ng/mL | Kel (in vivo; female, Beagle): 0.23 h‐1 | Tmax (in vivo; female, Beagle): 4.8 min | half-life (in vivo; female, Beagle): 182 min | Morbidity (in vivo; female, Beagle): 0 number of dogs | Mortality (in vivo; female, Beagle): 0 number of dogs | Clinical signs observed: N of dogs with Mild vomiting (in vivo; male, Beagle): 1 | Cmax (in vivo; male, Beagle): 14000 ng/mL | Kel (in vivo; male, Beagle): 0.24 h‐1 | Tmax (in vivo; male, Beagle): 4.8 min | half-life (in vivo; male, Beagle): 173 min | Morbidity (in vivo; male, beagle): 0 number of dogs | Mortality (in vivo; male, beagle): 0 number of dogs
